23 molecules from US8598202B2, “Aryl-hydroxyethylamino-pyrimidines and triazines as modulators of fatty acid amide hydrolase” (Janssen Pharmaceutica NV, priority 2008, dated 2013) can be followed below.

Structures can show the parent of a compound that is named as a salt. Where two headings read alike, the source gives them in different places.

One assay concerns the target T1, Rat FAAH-1 (Rattus norvegicus, UniProt P97612).
T1 sequence (P97612 1-579): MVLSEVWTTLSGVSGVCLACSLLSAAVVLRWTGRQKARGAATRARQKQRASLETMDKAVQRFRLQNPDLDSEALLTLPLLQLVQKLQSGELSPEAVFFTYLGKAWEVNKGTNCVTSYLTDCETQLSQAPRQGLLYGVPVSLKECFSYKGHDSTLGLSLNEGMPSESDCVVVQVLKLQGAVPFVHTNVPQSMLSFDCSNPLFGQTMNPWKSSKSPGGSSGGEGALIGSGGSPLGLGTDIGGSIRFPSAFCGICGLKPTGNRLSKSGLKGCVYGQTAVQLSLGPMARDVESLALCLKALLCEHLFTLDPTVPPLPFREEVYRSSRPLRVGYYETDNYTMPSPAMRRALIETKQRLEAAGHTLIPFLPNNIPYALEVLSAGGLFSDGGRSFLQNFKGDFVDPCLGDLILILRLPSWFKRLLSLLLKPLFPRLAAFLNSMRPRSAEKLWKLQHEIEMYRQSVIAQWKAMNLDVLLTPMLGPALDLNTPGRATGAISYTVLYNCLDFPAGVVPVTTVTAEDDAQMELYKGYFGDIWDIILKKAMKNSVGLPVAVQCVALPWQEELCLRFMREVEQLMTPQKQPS
Kind of assay: Assay Method 2: rat FAAH-1 assay, 3H-anandamide hydrolysis in homogenate of SK-N-MC cells transfected with rat FAAH.

Another assay deals with T2, FAAH (Homo sapiens, UniProt O00519).
T2 sequence (O00519 1-579): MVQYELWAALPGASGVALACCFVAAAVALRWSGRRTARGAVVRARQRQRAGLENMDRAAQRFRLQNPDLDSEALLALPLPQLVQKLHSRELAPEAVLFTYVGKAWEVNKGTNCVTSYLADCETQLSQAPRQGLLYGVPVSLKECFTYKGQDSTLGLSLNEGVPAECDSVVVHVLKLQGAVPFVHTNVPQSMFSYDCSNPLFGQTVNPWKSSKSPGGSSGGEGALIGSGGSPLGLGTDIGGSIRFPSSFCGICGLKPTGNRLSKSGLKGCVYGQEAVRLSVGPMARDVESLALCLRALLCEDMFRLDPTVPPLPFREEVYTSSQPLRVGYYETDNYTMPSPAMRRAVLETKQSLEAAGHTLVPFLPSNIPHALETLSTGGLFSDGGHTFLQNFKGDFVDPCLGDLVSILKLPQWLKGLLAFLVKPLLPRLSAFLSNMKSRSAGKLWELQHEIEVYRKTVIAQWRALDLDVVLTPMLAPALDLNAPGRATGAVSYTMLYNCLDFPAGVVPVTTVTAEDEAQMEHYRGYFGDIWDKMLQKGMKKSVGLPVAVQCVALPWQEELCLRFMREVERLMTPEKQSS
Briefly: Assay Method 1: FAAH assay, 3H-anandamide hydrolysis in homogenate of T84 cells or SK-N-MC cells transfected with human FAAH.

Procedure for Rat FAAH-1: The assay mixture consisted of 50 μL of the cell homogenate, 10 μL of the test compound, and 40 μL of anandamide [1-^3H-ethanolamine] (^3H-AEA, Perkin-Elmer, 10.3 Ci/mmol), which was added last, for a final tracer concentration of 80 nM. The reaction mixture was incubated at rt for 1 h. During the incubation, 96-well Multiscreen filter plates (catalog number MAFCNOB50; Millipore, Bedford, Mass., USA) were loaded with 25 μL of activated charcoal (Multiscreen column loader, catalog number MACL09625, Millipore) and washed once with 100 μL of MeOH. […] After the 1 h incubation, 60 μL of the reaction mixture were transferred to the charcoal plates, which were then assembled on top of the DYNEX plates using Centrifuge Alignment Frames (catalog number MACF09604, Millipore). The unbound labeled ethanolamine was centrifuged through to the bottom plate (5 min at 2000 rpm), which was preloaded with the scintillant, as described above. The plates were sealed and left at rt for 1 h before counting on a Hewlett Packard TopCount.

In general, IC50 refers to the concentration that inhibits the measured activity by half. With `OC(CNc1cc(-c2ccc(C(F)(F)F)c(Cl)c2)ncn1)c1ccc(-n2ccnc2)cc1` (stereo not shown) [Example 200, 2-({6-[3-Chloro-4-(trifluoromethyl)phenyl]pyrimidin-4-yl}amino)-1-[4-(1H-imidazol-1-yl)phenyl]ethanol], the 50% inhibitory concentration (IC50) was 1600 nM against Rat FAAH-1 and 165 nM against FAAH.

Regarding `O[C@@H](CNc1cc(-c2ccc(Cl)c(F)c2)ncn1)c1ccccc1` [Example 27, (1R)-2-{[6-(4-Chloro-3-fluorophenyl)pyrimidin-4-yl]amino}-1-phenylethanol trifluoroacetic acid salt], the IC50 was determined as 120 nM against Rat FAAH-1 and 24 nM on FAAH.

In the case of `OC(CNc1cc(-c2ccc(OC(F)(F)F)cc2)ncn1)c1ccc2c(c1)OC(F)(F)O2` (stereo not shown) [Example 122, 1-(2,2-Difluoro-1,3-benzodioxol-5-yl)-2-[(6-{4-[(trifluoromethyl)oxy]phenyl}pyrimidin-4-yl)amino]ethanol], the half-inhibitory concentration (IC50) against Rat FAAH-1 was found to be 19 nM; against FAAH it was 13 nM.

`OC(CNc1cc(-c2ccc(OC(F)(F)F)cc2)ncn1)c1ccccc1Cl` (stereo not shown) [Example 115, 1-(2-Chlorophenyl)-2-[(6-{4-[(trifluoromethyl)oxy]phenyl}pyrimidin-4-yl)amino]ethanol]: the values for the IC50 on Rat FAAH-1 and at FAAH were 205 nM and 140 nM, respectively.

`O=Cc1ccc(-c2cc(NC[C@H](O)c3ccccc3)ncn2)cc1` [Example 22, 4-(6-{[(2R)-2-Hydroxy-2-phenylethyl]amino}pyrimidin-4-yl)benzaldehyde]: the IC50 at Rat FAAH-1 was 270 nM; against FAAH, 81 nM.

Regarding `OC(CNc1cc(-c2ccc(C(F)(F)F)c(Cl)c2)ncn1)c1ccc(-c2ccccn2)s1` (stereo not shown) [Example 209, 2-({6-[3-Chloro-4-(trifluoromethyl)phenyl]pyrimidin-4-yl}amino)-1-(5-pyridin-2-ylthiophen-2-yl)ethanol], the half-maximal inhibitory concentration (IC50) at Rat FAAH-1 worked out at 36 nM; at FAAH, 12 nM.

As to `OC(CNc1cc(-c2ccc3ccccc3c2)ncn1)c1ccccc1` (stereo not shown) [Example 235, 2-[(6-Naphthalen-2-ylpyrimidin-4-yl)amino]-1-phenylethanol], the values for the half-maximal inhibitory concentration (IC50) against Rat FAAH-1 and against FAAH were 324 nM and 21 nM, respectively.

With `O=[N+]([O-])c1ccc(C(O)CNc2cc(-c3ccc(OC(F)(F)F)cc3)ncn2)cc1` (stereo not shown) [Example 107, 1-(4-Nitrophenyl)-2-[(6-{4-[(trifluoromethyl)oxy]phenyl}pyrimidin-4-yl)amino]ethanol], the 50% inhibitory concentration (IC50) is 320 nM against Rat FAAH-1 and 240 nM on FAAH.

With `OC(CNc1cc(-c2ccc(OC(F)(F)F)cc2)ncn1)c1cc(Cl)cc(Cl)c1` (stereo not shown) [Example 126, 1-(3,5-Dichlorophenyl)-2-[(6-{4-[(trifluoromethyl)oxy]phenyl}-pyrimidin-4-yl)amino]ethanol], the 50% inhibitory concentration (IC50) at Rat FAAH-1 turned out to be 1000 nM; against FAAH, 1200 nM.

Turning to `OC(CNc1cc(-c2ccc(C(F)(F)F)c(Cl)c2)ncn1)c1nc2ccccc2s1` (stereo not shown) [Example 216, 1-Benzothiazol-2-yl-2-[6-(3-chloro-4-trifluoromethyl-phenyl)-pyrimidin-4-ylamino]-ethanol], the IC50 at Rat FAAH-1 and at FAAH was greater than 10000 nM in each case.

In the case of `OC(CNc1cc(-c2ccc(C(F)(F)F)c(Cl)c2)ncn1)c1ccc(-c2ccccn2)cc1` (stereo not shown) [Example 193, 2-({6-[3-Chloro-4-(trifluoromethyl)phenyl]pyrimidin-4-yl}amino)-1-(4-Pyridin-2-ylphenyl)ethanol], the half-maximal inhibitory concentration (IC50) at Rat FAAH-1 worked out at 850 nM; against FAAH, 40 nM.

On to `O[C@@H](CNc1cc(-c2cc(F)cc(F)c2)ncn1)c1ccccc1` [Example 58, (1R)-2-{[6-(3,5-Difluorophenyl)pyrimidin-4-yl]amino}-1-phenylethanol trifluoroacetic acid salt], for which the values for the 50% inhibitory concentration (IC50) against Rat FAAH-1 and against FAAH were 470 nM and 104 nM, respectively.

Consider `NCCNc1nc(NC[C@H](O)c2ccccc2)cc(-c2ccc(C(F)(F)F)c(Cl)c2)n1` [Example 157, (1R)-2-({2-[(2-Aminoethyl)amino]-6-[3-chloro-4-(trifluoromethyl)phenyl]pyrimidin-4-yl}amino)-1-phenylethanol trifluoroacetic acid salt], for which the values for the half-inhibitory concentration (IC50) against Rat FAAH-1 and at FAAH were 4000 nM and 2000 nM, respectively.

For `Nc1nc(NC[C@H](O)c2ccccc2)cc(-c2ccc(C(F)(F)F)c(Cl)c2)n1` [Example 61, (1R)-2-({2-Amino-6-[3-chloro-4-(trifluoromethyl)phenyl]pyrimidin-4-yl}amino)-1-phenylethanol trifluoroacetic acid salt], the IC50 against Rat FAAH-1 came out at 28 nM; against FAAH, 6 nM.

For the molecule `OC(CNc1cc(-c2ccc(C(F)(F)F)c(Cl)c2)ncn1)c1cc2ccccc2s1` (stereo not shown) [Example 196, 1-(1-Benzothiophen-2-yl)-2-({6-[3-chloro-4-(trifluoromethyl)phenyl]pyrimidin-4-yl}amino)ethanol], the half-inhibitory concentration (IC50) on Rat FAAH-1 was 43 nM; at FAAH, 108 nM.

On to `O[C@@H](CNc1cc(-c2ccc(F)c(F)c2)ncn1)c1ccccc1` [Example 59, (1R)-2-{[6-(3,4-Difluorophenyl)pyrimidin-4-yl]amino}-1-phenylethanol trifluoroacetic acid salt], for which the concentration for half-maximal inhibition (IC50) against Rat FAAH-1 was determined as 1000 nM; against FAAH, 307 nM.

`CSc1ccc(-c2cc(NCC(O)c3ccccc3)ncn2)cc1` (stereo not shown) [Example 225, 2-[6-(4-Methylsulfanyl-phenyl)-Pyrimidin-4-ylamino]-1-phenyl-ethanol]: the IC50 was 128 nM against Rat FAAH-1 and 11 nM on FAAH.

Turning to `CC(C)Oc1ccc(-c2cc(NC[C@H](O)c3ccccc3)ncn2)cc1Cl` [Example 19, (1R)-2-[(6-{3-Chloro-4-[(1-methylethyl)oxy]phenyl}pyrimidin-4-yl)amino]-1-phenylethanol], the IC50 came to 12 nM against Rat FAAH-1 and 20 nM against FAAH.

Regarding `O=S(=O)(c1ccc(-c2cc(NC[C@H](O)c3ccccc3)ncn2)cc1)N1CCCCC1` [Example 79, (1R)-1-Phenyl-2-({6-[4-(piperidin-1-ylsulfonyl)phenyl]pyrimidin-4-yl}amino)ethanol], the IC50 worked out at 530 nM at Rat FAAH-1 and 542 nM at FAAH.

`CNc1nc(NC[C@H](O)c2ccccc2)cc(-c2ccc(C(F)(F)F)c(Cl)c2)n1` [Example 141, (1R)-2-({6-[3-Chloro-4-(trifluoromethyl)phenyl]-2-(methylamino)pyrimidin-4-yl}amino)-1-phenylethanol trifluoroacetic acid salt]: the 50% inhibitory concentration (IC50) came out at 5 nM on Rat FAAH-1 and 12 nM against FAAH.

As to `OC(CNc1cc(-c2c(F)cccc2F)ncn1)c1ccccc1` (stereo not shown) [CE4, 2-[6-(2,6-Difluoro-phenyl)-pyrimidin-4-ylamino]-1-phenyl-ethanol, reference compound], the IC50 on Rat FAAH-1 (read-out: Assay 2 IC50, Table 2, Comparative Examples, rat FAAH-1) is greater than 10000 nM; on FAAH (read-out: Assay 1 IC50, Table 2, Comparative Examples, human FAAH), greater than 10000 nM.

Turning to `O[C@@H](CNc1cc(-c2cc3cc(F)ccc3s2)ncn1)c1ccccc1` [Example 187, (1R)-2-{[6-(5-Fluoro-1-benzothiophen-2-yl)pyrimidin-4-yl}amino]-1-Phenylethanol], the half-inhibitory concentration (IC50) against Rat FAAH-1 came to 400 nM; against FAAH, 20 nM.

Turning to `O[C@@H](CNc1cc(-c2ccc3c(C(F)(F)F)noc3c2)ncn1)c1ccccc1` [Example 182, (1R)-1-Phenyl-2-({6-[3-(trifluoromethyl)-1,2-benzisoxazol-6-yl]pyrimidin-4-yl}amino)ethanol], the IC50 turned out to be 4 nM against Rat FAAH-1 and 10 nM against FAAH.
